Results: US9534209B2, “Methods and tools for identification of RSK/MSK kinase inhibitors” (Aarhus Universitet, priority 2012, dated 2017)
Structures can show the parent of a compound that is named as a salt.

How the values were obtained:
RSK2 cysteine 599 (C599) = molecular target: T1, RSK2 cysteine 599 (C599) (Mus musculus, UniProt P18654); test: Mass spectrometric analysis of DMF modification of RSK2; format: binding, murine; conditions: chymotrypsin digest, MALDI TOF/TOF
T1 construct: His8 (N, cleaved yes); linker DYDIPTT (N, cleaved yes); TEV protease site ENLYFQG (only the final G remains after cleavage) (N, cleaved yes); made in house; host or cells: E. coli BL21 (DE3) Rosetta, RSK2-pET-22b
T1 sequence (P18654 with tags, fused parts or gaps): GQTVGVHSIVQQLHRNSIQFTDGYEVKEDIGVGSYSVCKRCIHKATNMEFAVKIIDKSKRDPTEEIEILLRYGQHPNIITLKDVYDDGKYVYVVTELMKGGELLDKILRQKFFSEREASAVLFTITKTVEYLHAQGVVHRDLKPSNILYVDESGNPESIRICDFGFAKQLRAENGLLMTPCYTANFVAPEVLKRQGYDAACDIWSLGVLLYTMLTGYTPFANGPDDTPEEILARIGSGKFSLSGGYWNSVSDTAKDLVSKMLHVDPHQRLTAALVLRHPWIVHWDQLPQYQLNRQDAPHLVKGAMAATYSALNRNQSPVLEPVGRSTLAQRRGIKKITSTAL
Text: (§1) A construct of the C-terminal kinase domain of murine Ribosomal S6 Kinase 2 (RSK2) (residues 400-740; SEQ ID NO. 2) including a N-terminal polyhistidine tag (His8), a linker (DYDIPTT) (SEQ ID NO: 21) and a Tobacco Etch Virus (TEV) protease site (ENLYFQG) (SEQ ID NO: 22) in the expressed kinase was designed and ordered from Genscript. The synthesised gene was subcloned into pET-22b (Novagen) by the vendor resulting in RSK2-pET-22b. BI21 (DE3) Rosetta was transformed with RSK2-pET-22b and plated on lysogeny broth (LB) agar plates supplemented with 50 μg/ml ampicillin (Amp) and 35 μg/ml Chloramphenicol (Cam). 5 colonies were used for inoculation of a 20 ml LB overnight culture supplemented with 100 μg/ml Amp and 35 μg/ml Cam. […] Protein concentration was evaluated by spectrophotometry (Nanodrop, Thermo Fisher Scientific) assuming εRSK2=44350 cm^−1 M^−1 and MRSK2=38.4 kDa. […] RSK2 purity was evaluated by SDS-PAGE using a 15% separation gel. […] The purification procedure resulted >95% pure and stable RSK2 evaluated by SDS-PAGE and mass spectrometry.
RSK2 samples were reduced and alkylated with iodoacetamide, i.e. carbamidomethylated, and subsequently digested with chymotrypsin. […] The peptide mixture was analyzed in positive reflector mode for accurate peptide mass determination. […]

RSK2 = molecular target: T2, RSK2 (Mus musculus, UniProt P18654, C599V); test: Mutational study of RSK2 in EGF-stimulated HEK 293 cells, Western blot p-RSK2 (Ser386); format: cell-based; conditions: 140 μM DMF pre-incubated 1 hour, 1 ng/ml EGF for 15 minutes
T2 construct: expressed in transfected cells; host or cells: HEK-293
T2 sequence (P18654 whole entry C599V): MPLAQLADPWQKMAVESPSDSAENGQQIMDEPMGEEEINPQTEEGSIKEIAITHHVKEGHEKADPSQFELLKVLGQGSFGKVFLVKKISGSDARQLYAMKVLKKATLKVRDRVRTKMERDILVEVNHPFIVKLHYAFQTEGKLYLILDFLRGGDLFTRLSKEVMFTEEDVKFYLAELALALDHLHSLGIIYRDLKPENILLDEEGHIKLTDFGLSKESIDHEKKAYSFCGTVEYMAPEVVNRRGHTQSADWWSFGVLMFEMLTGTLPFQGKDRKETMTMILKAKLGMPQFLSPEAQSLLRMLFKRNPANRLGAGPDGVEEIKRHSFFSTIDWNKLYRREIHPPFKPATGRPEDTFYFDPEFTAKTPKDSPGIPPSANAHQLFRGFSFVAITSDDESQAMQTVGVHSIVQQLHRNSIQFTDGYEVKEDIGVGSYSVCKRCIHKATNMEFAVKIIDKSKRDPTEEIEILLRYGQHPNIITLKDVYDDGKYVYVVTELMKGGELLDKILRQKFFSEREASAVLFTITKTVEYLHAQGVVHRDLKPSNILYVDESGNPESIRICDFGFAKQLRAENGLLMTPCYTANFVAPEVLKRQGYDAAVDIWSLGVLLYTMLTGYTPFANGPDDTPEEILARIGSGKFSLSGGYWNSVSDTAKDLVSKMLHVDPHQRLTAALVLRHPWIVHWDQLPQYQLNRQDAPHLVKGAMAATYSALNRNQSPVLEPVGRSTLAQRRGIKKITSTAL
Protocol: Human embryonic kidney cells (HEK-293) were cultured in tissue culture flasks (150 cm^2) to 60% confluence in Dulbecco's modified Eagle's medium (DMEM) (Gibco) supplemented with 50 units/ml penicillin G (Gibco), […] streptomycin (Invitrogen), 5 μg/ml gentamycin (Gibco), 10% (v/v) foetal bovine serum (FBS) (Gibco) and 2.5% HEPES (Gibco). Cells were trypsinated and seeded in 10 cm petri dishes at a density of 6.5×10^6 cells per dish in 10 ml DMEM supplemented with 50 μg/ml bovine pituitary growth hormone (BGH) (Gibco), antibiotics (penicillin G, streptomycin, gentamycin) and 2% FBS and 2.5% HEPES and were incubated for 2 days. The culture medium was changed to 7 ml DMEM supplemented with 2.5% Hepes for 16 hours. Transfection with plasmids was performed as previously described Jensen et al. 1999^57 with modifications. HEK-293 cells were transfected using 3.5 μg plasmid DNA/dish dissolved in 250 μl Optimem (Invitrogen) and 30 μl Lipofectamine 2000 (Invitrogen) dissolved in 250 μl Optimem added together for 20 minutes before transferred to cells. […]
(§2) Dimethylfumarate (DMF) (Sigma-Aldrich) was dissolved in dimethylsulfoxide (DMSO) (Merck) resulting in a 70 mM stock solution and diluted to 7 mM (4% v/v DMSO) in culture medium. […] Densitometry analysis of the band intensity was performed on a flatbed scanner (Epson PERFECTION V750PRO) and quantitated by Jelly Quant.

[1] = molecular target: T3, C-terminal kinase domain of murine RSK2 (Mus musculus, UniProt P18654); test: X-ray co-crystal structure of RSK2 C-terminal kinase domain with DMF; format: binding; conditions: 1.9 Å resolution X-ray crystal structure; RSK2 8 mg/ml with 5 mM DMF, 30 min at room temperature
T3 construct: His8 (N, cleaved yes); linker DYDIPTT (N, cleaved yes); TEV protease site ENLYFQG (only the final G remains after cleavage) (N, cleaved yes); made in house; host or cells: E. coli BL21 (DE3) Rosetta, RSK2-pET-22b
T3 sequence (P18654 with tags, fused parts or gaps): as the sequence (P18654 with tags, fused parts or gaps) above
Text: as §1, with “Cam. 2 liters of LB, supplemented with 100 μg/ml Amp and 35 μg/ml Cam, was inoculated with the overnight culture and grown at 37° C. Expression was induced with 0.1 mM isopropyl β-D-1-thiogalactopyranoside at an optical density of A600 nm=0.8 and the temperature was lowered to 20° C. for 3 h and further lowered to 12° C. for 20 hours.” for “Cam.”, “spectrometry. […]” for “spectrometry.”

human MSK1 = molecular target: T4, human MSK1 (Homo sapiens, UniProt O75582, C603V); test: Mutational study of MSK1 in EGF-stimulated HEK 293 cells, Western blot p-MSK1 (Ser376); format: cell-based; conditions: 140 μM DMF pre-incubated 1 hour, 1 ng/ml EGF for 30 minutes
T4 construct: expressed in transfected cells; host or cells: HEK-293, vector pEBG2T
T4 sequence (O75582 whole entry C603V): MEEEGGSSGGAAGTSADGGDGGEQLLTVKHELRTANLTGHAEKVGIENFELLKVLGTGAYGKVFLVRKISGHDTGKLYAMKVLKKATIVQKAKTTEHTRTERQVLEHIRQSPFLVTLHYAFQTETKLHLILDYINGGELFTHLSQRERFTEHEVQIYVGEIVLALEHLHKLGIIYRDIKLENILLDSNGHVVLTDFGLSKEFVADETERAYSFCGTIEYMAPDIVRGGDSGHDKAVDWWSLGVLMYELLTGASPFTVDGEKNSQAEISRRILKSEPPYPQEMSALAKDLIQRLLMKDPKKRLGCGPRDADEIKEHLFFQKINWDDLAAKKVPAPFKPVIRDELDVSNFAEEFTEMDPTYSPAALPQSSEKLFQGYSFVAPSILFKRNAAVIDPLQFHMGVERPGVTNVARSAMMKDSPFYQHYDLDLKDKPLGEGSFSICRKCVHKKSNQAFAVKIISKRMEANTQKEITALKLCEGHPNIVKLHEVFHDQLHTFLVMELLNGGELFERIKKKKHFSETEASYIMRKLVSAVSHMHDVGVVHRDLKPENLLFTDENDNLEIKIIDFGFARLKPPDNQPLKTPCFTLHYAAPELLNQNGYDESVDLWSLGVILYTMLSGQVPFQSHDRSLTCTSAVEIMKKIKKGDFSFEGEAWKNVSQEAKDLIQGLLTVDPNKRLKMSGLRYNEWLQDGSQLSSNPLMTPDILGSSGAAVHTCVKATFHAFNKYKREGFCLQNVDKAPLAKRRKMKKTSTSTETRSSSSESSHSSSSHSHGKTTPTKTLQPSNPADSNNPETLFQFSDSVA
Protocol: Mutational analysis of MSK1 was performed in a mammalian expression vector (pEBG2T) in which a glutathione S-transferase (GST) domain and FLAG-tag (Asp-Tyr-Lys-Asp-Asp-Asp-Asp-Lys) was fused to the N-terminus of human MSK1 (GST-FLAG-MSK1)^6. The positions corresponding to C436, T579 and C599 in murine RSK2 (SEQ ID NO: 1) of human MSK1 (C440, T583 and C603) were mutated to Val, Ser and Thr (For T583 only an Ala mutation was performed) using the QuikChange Lightning Kit (Agilent Technologies).
Human embryonic kidney cells (HEK-293) were cultured in tissue culture flasks (150 cm^2) to 60% confluence in Dulbecco's modified Eagle's medium (DMEM) (Gibco) supplemented with 50 units/ml penicillin G (Gibco), […] streptomycin (Invitrogen), 5 μg/ml gentamycin (Gibco), 10% (v/v) foetal bovine serum (FBS) (Gibco) and 2.5% HEPES (Gibco). […]
as §2, with “Quant. […]” for “Quant.”

binding of DMF to RSK2 in co-crystal structure [1]: binding of one DMF molecule to RSK2
Compound: COC(=O)/C=C/C(=O)OC [DMF, dimethyl fumarate]
covalent modification of C599 of RSK2 by DMF (RSK2 cysteine 599 (C599)): Covalent modification of C599 was identified
effect of DMF on phosphorylation of S386 of RSK2 mutant C599 to valine (RSK2): no decrease in the phosphorylation of S386 was observed
effect of DMF on phosphorylation of S376 of MSK1 mutant C603 to valine (human MSK1): no decrease in the phosphorylation of S376 was observed
